The numbers were not newly measured in patent US20220000855A1, “AN AURORA A KINASE INHIBITOR FOR USE IN THE TREATMENT OF NEUROBLASTOMA” (Eli Lilly and Company, priority 2018, published 2022), which cites them from elsewhere.

The conditions of this data set: background statement.

Structures are written as SMILES.

Turning to `COc1cc(Nc2ncc3c(n2)-c2ccc(Cl)cc2C(c2c(F)cccc2OC)=NC3)ccc1C(=O)O` [alisertib], the “neutropenia and other toxic effects associated with use” value is “unacceptably high levels of neutropenia and other toxic effects”.
`Cc1cc(Nc2cc(N3CCN(C)CC3)nc(Sc3ccc(NC(=O)C4CC4)cc3)n2)[nH]n1` [tozasertib]: the “neutropenia and other toxic effects associated with use” value is “unacceptably high levels of neutropenia and other toxic effects”.
